In data set [1] the test system is Aspergillus niger. As to the kind of experiment: Agar well inhibition zone test against fungi, Aspergillus niger (Table II). The settings on record: quantity per well giving inhibition zone (500, 50, 5 μg tested); Sabouraud agar, 28°, 48 hours.
Data set [2] concerns E. coli. As to the kind of experiment: Minimum inhibitory concentration for bacteria in presence of serum, E. coli (Table VII). In kind it is cell-based. The note with it: Escherichia coli; nutrient broth + 10% serum, 37°C, 48 hours.
Data set [3] concerns A. niger. Kind of data set: Minimum inhibitory concentration for fungi, tube dilution, A. niger (Table IV). The settings on record: Aspergillus niger, 48 h, read-out: Minimum Inhibitory Concentration, A. niger.
Method: (§1) A tube dilution series of the respective compound in Sabouraud nutrient broth, whose individual tubes contained concentrations of 1024 μg, 512 μg, 256 μg, 128 μg, 64 μg, 32 μg, 16 μg, 8 μg, 4 μg, 2 μg, 1.1 μg and 0.5 μg/ml, was prepared and inoculated with a photometrically standardized suspension of the test organisms or the spores thereof.
The subject of data set [4] is Staph. aureus. Kind of data set: Minimum inhibitory concentration for bacteria, tube dilution, Staph. aureus (Table V). The settings on record: Staphylococcus aureus, 48 h, read-out: Minimum Inhibitory Concentration, Staph. aureus.
Method: A tube dilution series of the respective compound in nutrient broth whose individual tubes contained concentrations of 1024 μg, 512 μg, 256 μg, 128 μg, 64 μg, 32 μg, 1 μg, 8 μg, 4 μg, 2 μg, 1.1 μg and 0.5 μg/ml was prepared and inoculated with a photometrically standardized suspension of the test organisms.
Data set [5] concerns C. albicans. Kind of data set: Minimum inhibitory concentration for fungi, tube dilution, C. albicans (Table IV). The settings on record: Candida albicans, 48 h, read-out: Minimum Inhibitory Concentration, C. albicans.
Method: as §1
For data set [6], the system named is C. albicans. As to the kind of experiment: Minimum inhibitory concentration for fungi in presence of serum, C. albicans (Table VI). In kind it is cell-based. The settings on record: Candida albicans; Sabouraud nutrient broth + 10% bovine serum, 28°C, 48 hours.
For data set [7], the system named is A. niger. Kind of data set: Minimum inhibitory concentration for fungi in presence of serum, A. niger (Table VI). Type of data set: cell-based. The settings on record: Aspergillus niger; Sabouraud nutrient broth + 10% bovine serum, 28°C, 48 hours.
For data set [8], the system named is Mycobacterium tuberculosis II 37 RV (typus humanus). As to the kind of experiment: Efficacy against Mycobacteria, Tb-broth dilution series (Table I). In kind it is cell-based. The settings on record: 504 h, Dubos Tb-broth + 10% bovine serum, 21 days, read-out: Minimum Inhibitory Concentration.
In data set [9] the test system is E. coli. As to the kind of experiment: Minimum inhibitory concentration for bacteria, tube dilution, E. coli (Table V). Type of data set: cell-based. The note with it: Escherichia coli, 48 h, read-out: Minimum Inhibitory Concentration, E. coli.
Data set [10] deals with Staphylococcus aureus. As to the kind of experiment: Agar well inhibition zone test against bacteria, Staphylococcus aureus (Table III). The settings on record: quantity per well giving inhibition zone (500, 50, 5 μg tested); nutrient agar, 37°, 24 hours.
Data set [11] deals with Candida albicans. Kind of data set: Agar well inhibition zone test against fungi, Candida albicans (Table II). The settings on record: quantity per well giving inhibition zone (500, 50, 5 μg tested); Sabouraud agar, 28°, 48 hours.
Method: The efficacy of the compounds against fungi was tested as follows:
The test organisms, in this case the blastomycete Candida albicans and the mold Aspergillus niger, were inoculated onto Sabouraud agar plates by pouring a photometrically adjusted standard suspension of organisms on the plate. After inoculation, wells with a diameter of 5.0 mm were punched in the agar, and filled with 50 ul of the compound solution mentioned before. The quantity of compound applied thus amounted to 500 μg, 50 μg and 5 μg. After incubation at 28° for 48 hours, the quantity of compound was determined at which an inhibition of the organism's growth, in form of an inhibition zone around the corresponding well, was present.
The nature of data set [12]: Solubility in water. In kind it is physicochemical. The note with it: hydrochlorides or oxalates, read-out: solubilities (in water). The method, boiled down:
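Water solubility given for the hydrochloride salts of most compounds and for the oxalate salts of a few.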

The test system of data set [13] is Escherichia coli. As to the kind of experiment: Agar well inhibition zone test against bacteria, Escherichia coli (Table III). The settings on record: quantity per well giving inhibition zone (500, 50, 5 μg tested); nutrient agar, 37°, 24 hours.

Each structure is given as a SMILES string. Converted amounts (≈) assume the structure as drawn.

Consider `CNCCN1CCN(C(C)C(=Cc2ccccc2)Cc2ccccc2)CC1` (stereo not drawn) [XXV, 1-phenyl-2-benzyl-3-[4'-(β-methylamino-ethyl)-piperazino-1']-butene-1], for which the “Inhibition Area at μg, Asp. niger” value in data set [1] amounted to 5 µg. Further, the MIC in [2] amounted to 512 µg/mL; in data set [3] it was 8 µg/mL (≈ 22 µM); in data set [4] it was 64 µg/mL (≈ 176 µM); in [5] it was 64 µg/mL (≈ 176 µM); in data set [6], 256 µg/mL; in [7] it was 64 µg/mL. Moreover, the values for the MIC in data set [8] and in data set [9] were 10 µg/mL and 64 µg/mL (≈ 176 µM), respectively. In addition, the “Inhibition Area at μg, Staph. aureus” value in [10] stood at 5 µg. Also, the “Inhibition Area at μg, Cand. albicans” value in data set [11] amounted to 5 µg. Also, the solubility in data set [12] stood at 100 mg/mL (≈ 275000 µM). Also, in data set [13], the “Inhibition Area at μg, E. coli” value was 50 µg.

Source of the values: patent US3947411A, “Novel 1-aryl-2-arylalkyl-3-or-4-[4'-(substituted-alkyl)piperazino-1']butanols- 2-or-butenes-1, and methods of manufacture thereof” (Warner-Lambert Company, priority 1972, dated 1976).
